Laboratory results published in PubChem BioAssay (NCI).
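Exposure lasted 48 hours, with cells grown in 96-well plates and compounds tested at five concentrations. TGI: concentration producing complete growth inhibition.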

Assays:
Assay in all cases: NCI tumour cell line growth inhibition, 48 h
HT29 colon = tested on: HT29 colon
OVCAR-5 ovarian = tested on: OVCAR-5 ovarian
KM12 colon = tested on: KM12 colon
CAKI-1 renal = tested on: CAKI-1 renal
SK-MEL-28 melanoma = tested on: SK-MEL-28 melanoma
OVCAR-3 ovarian = tested on: OVCAR-3 ovarian
MALME-3M melanoma = tested on: MALME-3M melanoma
HCT-116 colon = tested on: HCT-116 colon
SK-MEL-5 melanoma = tested on: SK-MEL-5 melanoma
HOP-62 NSCLC = tested on: HOP-62 NSCLC
UO-31 renal = tested on: UO-31 renal
EKVX NSCLC = tested on: EKVX NSCLC

| SMILES | TGI (HT29 colon) [µM] | TGI (OVCAR-5 ovarian) [µM] | TGI (KM12 colon) [µM] | TGI (CAKI-1 renal) [µM] | TGI (SK-MEL-28 melanoma) [µM] | TGI (OVCAR-3 ovarian) [µM] | TGI (MALME-3M melanoma) [µM] | TGI (HCT-116 colon) [µM] | TGI (SK-MEL-5 melanoma) [µM] | TGI (HOP-62 NSCLC) [µM] | TGI (UO-31 renal) [µM] | TGI (EKVX NSCLC) [µM] |
| --- | --- | --- | --- | --- | --- | --- | --- | --- | --- | --- | --- | --- |
| CC(=O)NC1C(OCc2ccccc2)OC(CO)C(O)C1OC(C)C(=O)NC(C)C(=O)NC(CCC(=O)NCCCCNc1c2ccccc2nc2cccc([N+](=O)[O-])c12)C(N)=O (stereo unspecified) | 0.0362 | 1.65 | 0.692 | 0.307 | 0.409 | 1.64 | 0.131 | 0.068 | 0.119 | 0.683 | 0.339 | 0.322 |
| CCOC(=O)/C=C/CCO[Si](C)(C)C(C)(C)C | > 100 | > 100 | > 100 | > 100 | > 100 | > 100 | > 100 | > 100 | > 100 | > 100 | > 100 | > 100 |
| CCOC(=O)C1(C(=O)OCC)[C@@H](c2ccccc2)C2=NO[C@@H]3CCC[C@H]1[C@H]23 | > 100 | > 100 | > 100 | > 100 | > 100 | > 100 | > 100 | > 100 | > 100 | > 100 | > 100 | > 100 |
| O=[N+]([O-])c1ccc(C(=S)Nc2ccccc2)o1 | 5.86 | 17.6 | 6.88 | 13.9 | 19.3 | 6.38 | 9.3 | 4.67 | 23.2 | 9.08 | 5.73 | 12.5 |
| COc1ccc(N2C(=O)/C(=C\c3cc(OC)c(OC)c(OC)c3)SC2c2ccccc2)cc1 (stereo unspecified) | > 100 | > 100 | > 100 | > 100 | > 100 | > 100 | > 100 | > 100 | > 100 | > 100 | > 100 | > 100 |
| Cc1nc2ccc(C(F)(F)F)cc2nc1NCc1ccc(Cl)c(Cl)c1 | 28.2 | 25.9 | 30.1 | 33.8 | 33.9 | 26.3 | 32 | 32 | 33.8 | 27.5 | 29.9 | 27.4 |
| Nc1ccc2c(c1)nc1n2C(c2c(F)cccc2F)SC1 (stereo unspecified) | > 100 | > 100 | > 100 | > 100 | > 100 | > 100 | > 100 | > 100 | > 100 | > 100 | > 100 | > 100 |
| C/C=C/C#CC#C/C=C/C=C/C(O)CCO (stereo unspecified) | > 23.1 | > 23.1 | > 23.1 | > 23.1 | > 23.1 | > 23.1 | > 23.1 | > 23.1 | > 23.1 | > 23.1 | > 23.1 | > 23.1 |
| CCOC(=O)c1c(C)n(-c2ccc(Cl)cc2)c2c1cc(O)c1[nH]c3c(c12)CCCC3 | > 100 | > 100 | > 100 | > 100 | > 100 | > 100 | > 100 | > 100 | 49.4 | > 100 | > 100 | > 100 |
| O=c1[nH]nc(Cc2ccccc2)n1C1CCCC1 | > 100 | > 100 | > 100 | > 100 | > 100 | > 100 | > 100 | > 100 | > 100 | > 100 | > 100 | > 100 |
| CCOC(=O)C(=CNc1ccc(NC2=NCC(C)S2)cc1)C(=O)OCC (stereo unspecified) | > 84.2 | > 100 | > 87.9 | > 100 | > 100 | 60.1 | 96.2 | > 100 | 34.5 | > 100 | 73 | > 100 |
| COC(=O)[C@]1(NC(=O)c2ccccc2)C[C@H]1C=O | > 100 | > 100 | > 100 | > 100 | > 100 | > 100 | > 100 | > 100 | > 100 | > 100 | > 100 | > 100 |
| CC1(c2nc3ccccc3[nH]2)CCC(C(=O)O)C(C)(C)O1 (stereo unspecified) | > 100 | > 100 | > 100 | > 100 | > 100 | > 100 | > 100 | > 100 | > 100 | > 100 | > 100 | > 100 |
